Experiments:
ROCK1/ROCK2 = details: competing with ATP; cited from earlier work
[1] = test system: isogenic LMNA-L35P iPSC-derived tri-culture microtissues; experiment: Calcium transient response of LMNA-L35P disease model tri-culture microtissues; type: cell-based, human; details: LMNA-L35P disease model microtissue; fourteen days post formation
From the text: (§1) Tri-culture microtissues were made from Normal Healthy Control (NHC) and isogenic LMNA-L35P iPSC-derived cell types. Fourteen days post microtissue formation, microtissues were challenged with isoproterenol.

[2] = test system: isogenic tri-culture cardiac microtissues (iPSC-derived cardiomyocytes, endothelial cells, cardiac fibroblasts); experiment: Calcium transient / inotropic response of isogenic tri-culture cardiac microtissues; type: cell-based, human; details: for calcium amplitude inotropic response with increased CF content: DIV 14, 10,000 total cells, 20% endothelial cells, varying cardiac fibroblast content
From the text: For the cardiac tri-culture microtissue assay, cryopreserved iPSC-derived cell types were combined in a specific ratio and formed into microtissues in microwell plates (FIG. 5A). Microtissues containing 65% iCell Cardiomyocytes, 20% iCell Endothelial cells, and 15% iPSC derived cardiac fibroblasts are shown in FIG. 5B. After 1-2 days, the microtissues were contracting.
Microtissues were fed a co-culture medium (Table 8) to support all three cell types. […] Microtissues were generated from three donor lines 11713, 01279, and 01434. Microtissues contained either iPSC-derived cardiomyocytes only or were tri-culture, containing isogenic iPSC-derived cardiomyocytes, iPSC-derived endothelial cells, and iPSC-derived cardiac fibroblasts. All microtissues were assayed for response to isoproterenol on Day 14 of culture. […] This response was in tri-culture microtissues from all three donor lines, in two independently produced lots of cardiac fibroblasts from donor 01434, and in microtissues containing cardiac fibroblasts from two independently derived clones from donor 11713 (11713.008 and 11713.847).
Response to dobutamine (DOB), digoxin (DIG), isoproterenol (ISO), and epinephrine (EPI) were assessed at DIV 14 on cardiac tri-culture microtissues comprised of 10,000 total cells and 20% iCell Endothelial Cells and iCell Cardiomyocytes and varying concentrations of iPSC derived cardiac fibroblasts (CF). […] (FIG. 6B).
as §1

[3] = test system: iPSC derived cardiac fibroblasts; experiment: Activation of iPSC-derived cardiac fibroblasts with TGFβ; type: cell-based, human
Procedure: The cardiac fibroblasts were thawed and plated on vitronectin-coated plates at 10 k/cm^2 and activated with TGFβ. TGFβ was added at 20 ng/mL or 40 ng/mL to activate cardiac fibroblasts on Day 2, with a media change on Day 4. On Day 5, media supernatants were collected and analyzed for fibronectin secretion by a Human FN ELISA Kit Cat #BMS2028. On Day 3 and Day 5, cardiac fibroblasts were harvested and counted by ViCell-XR. After 5 days cells were collected for flow cytometry.

[4] = test system: epicardial progenitors from the ABC method; experiment: Cardiac fibroblast differentiation in serum with varying basic FGF, CD29 positive cells; type: cell-based, human; details: increasing concentrations of basic FGF, serum-containing medium
Procedure: Cardiac fibroblasts were induced in serum containing conditions on Day 25. The cells were fed DMEM-Low glucose, 10% FBS, Ascorbic Acid, and 200 ng/mL basic FGF and purified through successive passaging (Table 6). Cardiac fibroblasts were >85% positive for TE-7 and CD29 and quiescent (i.e., less than 5% αSMA) (FIG. 4A).

[5] = test system: iPS cells (WT1+ epicardial cells); experiment: Epicardial (WT1+) progenitor induction from iPS cells, CHIR dose titration / ABC; type: cell-based, human
Procedure: Cardiac mesoderm cells were then dissociated and contacted with a low concentration of Wnt inhibitor, XAV939, (Table 4) for two days to be specified into a WT1 epicardial lineage (FIG. 3A). The percentage of epicardial cells were measured in single CHIR, ABC, and double CHIR conditions. Epicardial induction with single CHIR or ABC step produced a mixed population of epicardial cells and cardiomyocytes. The percentage of WT1+ epicardial cells ranged from 30% WT1 to 90% WT1. These epicardial progenitors were used directly for cardiac fibroblast induction without additional passaging or purification of epicardial cells. A dose titration of CHIR was performed on iPS cells. […] A dose of 6 μM CHIR on Day 1 generated a population of 60% WT1 epicardial progenitor cells that have characteristic cobblestone morphology by Day 14 (FIG. 3C). […] When Activin and BMP were added with the single CHIR, the epicardial cells retained a flattened cobble stone morphology and dark, round nucleus. Cell-cell borders became less pronounced. There was no need to passage the epicardial cells. […] This was visible by increased cell numbers, decreased cell size, and more elongated morphology.

Question: For `C[C@@H](N)[C@H]1CC[C@H](C(=O)Nc2ccncc2)CC1` [Y-27632], which IC50 (ROCK1/ROCK2) is on record?
Answer: Its IC50 is 800 nM.

Question: Which “response to isoproterenol (calcium transient amplitude)” value [1] does the source give for `CC(C)NCC(O)c1ccc(O)c(O)c1` (centres unmarked) [isoproterenol] here?
Answer: Its value is “did not respond”.

Question: And the calcium transient amplitude ([2]; 100 nM isoproterenol, Normal Healthy Control microtissues, fourteen days post microtissue formation)?
Answer: Its calcium transient amplitude is “increase in calcium transient amplitude”.

Question: And the “calcium transient amplitude response to isoproterenol” value ([2]; Day 14 of culture, three donor lines)?
Answer: The value was “increase in calcium transient amplitude”.

Question: What about the “beat rate by calcium transient” value ([2]; in the presence of isoproterenol) of the same molecule?
Answer: Its value is “increase in beat rate”.

Question: For TGFβ, which “gene expression by quantitative real-time PCR” value ([3]; 20 ng/mL TGFβ for 4 days, single CHIR and double CHIR cardiac fibroblasts) is on record?
Answer: Its value is “increased POSTN, DDR2, COL1A1, COL1A2, GJA1, and ACTA2 expression”.

Question: What about the “alpha smooth muscle actin expressing population (flow cytometry)” value ([3]; TGFβ 20 ng/mL or 40 ng/mL added Day 2, cells collected after 5 days) of the same molecule?
Answer: Its value is “alpha smooth muscle actin expressing population was seen to emerge”.

Question: And the fibronectin secretion ([3]; cardiac fibroblasts from serum-containing and serum-free induction)?
Answer: The fibronectin secretion was “increased fibronectin secretion”.

Question: For `C[C@H]1O[C@@H](O[C@H]2[C@@H](O)C[C@H](O[C@H]3[C@@H](O)C[C@H](O[C@H]4CC[C@@]5(C)[C@H](CC[C@@H]6[C@@H]5C[C@@H](O)[C@]5(C)[C@@H](C7=CC(=O)OC7)CC[C@]65O)C4)O[C@@H]3C)O[C@@H]2C)C[C@H](O)[C@@H]1O` [digoxin], which “calcium amplitude inotropic response with increased CF content” value [2] is on record?
Answer: The value was “increased calcium amplitude inotropic response”.

Question: For `CC(CCc1ccc(O)cc1)NCCc1ccc(O)c(O)c1` (centres unmarked) [dobutamine], which “calcium amplitude inotropic response with increased CF content” value [2] is on record?
Answer: Its value is “increased calcium amplitude inotropic response”.

Question: With “basic FGF: basic fibroblast growth factor used for cardiac fibroblast induction” as the molecule, how does the “percentage of CD29 positive cells” value [4] read?
Answer: The value was “increase the percentage of CD29 positive cells”.

Question: Which “WT1 epicardial progenitor cells” value ([5]; 6 μM CHIR on Day 1, single CHIR method) does the source give for `Cc1c[nH]c(-c2cnc(NCCNc3ccc(C#N)cn3)nc2-c2ccc(Cl)cc2Cl)n1` [CHIR, CHIR99021] here?
Answer: Its value is 60%.

Question: What about the “effect of increasing dose on percentage of WT1+ epicardial cells” value ([5]; dose on Day 1, single CHIR method, read on Day 9) of the same molecule?
Answer: Its value is “did not increase the percentage of WT1+ epicardial cells”.

Question: For `CNC[C@H](O)c1ccc(O)c(O)c1` [epinephrine], which “calcium amplitude inotropic response with increased CF content” value [2] is on record?
Answer: The value was “increased calcium amplitude inotropic response”.

Reference: patent US12714728B2, “Methods for the production of cardiac fibroblasts” (FUJIFILM Cellular Dynamics, Inc., priority 2022, dated 2026)
